{"source": "patent US9623063B2", "about": "“Extracts from Ajuga reptans cell lines, their preparation and use” (I.R.B. ISTITUTO DI RICERCHE BIOTECNOLOGICHE S.r.l., priority 2005, dated 2017)", "key": {"[1]": {"tested_on": "A549 cells (ATCC-CCL185)", "assay": "BSO-induced oxidative stress, ROS by DCF fluorimetry in A549 cells", "assay_type": "cell-based, human", "conditions": "20 μM; with BSO; control without BSO = 100", "protocol": "10×10^5 A549 cells (ATCC-CCL185) have been seeded into wells with 3 ml of DMEM/F12K HAM medium (Sigma-Aldrich) with 10% FCS and incubated at 37° C. in a 5% CO2, water vapour saturated atmosphere. After 24 hours the culture medium is replaced by medium supplemented with BSO, which is left in contact with the cells for 20 hours. The medium is once again replaced with medium containing BSO in the presence or absence of the test compound. After 4 hours, quantitative measurement of the ROSs (hydroxyl radicals) is performed by washing the cells with phosphate buffer and then incubating them with 30 μM DCF-DA in buffer solution. At the end of a 15 minute incubation, excess DCF-DA is removed from the cells by washing, prior to measuring the fluorescence emitted.\nAntioxidant activity measurements are performed using a (Hitachi F3010) spectrophotometer with excitation at 488 nm and measuring emission at 525 nm, and values are expressed in pmoles, by extrapolation from the calibration curve constructed using known quantities of DCF, and in relation to total cellular protein. Values are thus expressed in % ages with respect to the ROS content of the cells not subjected to treatment with BSO (control) to which are assigned a value of 100.\nThe Extracts 1 and 2, Teupolioside and Ascorbic Acid were solubilized in phosphate buffer 10 mM at pH 7.4, whereas trolox was solubilized in 0.1% of dimethylsulphoxide and culture medium."}, "[2]": {"tested_on": "3T3 fibroblasts", "assay": "BSO-induced oxidative death of 3T3 fibroblasts (MTT)", "assay_type": "cell-based, BALB/c mouse", "conditions": "20 μM; BSO 200 μM, 24 hours"}}}
{"molecule": "C[C@@H]1O[C@@H](O[C@@H]2[C@@H](O)[C@H](OCCc3ccc(O)c(O)c3)O[C@H](CO)[C@H]2OC(=O)/C=C/c2ccc(O)c(O)c2)[C@H](O[C@@H]2O[C@H](CO)[C@H](O)[C@H](O)[C@H]2O)[C@H](O)[C@H]1O", "note": "[Teupolioside, teupolioside]", "values": [{"measurement": "% ROS in picomoles", "setting": "[1]", "result": "135 ± 7", "unit": "%"}, {"measurement": "% survived cells", "setting": "[2]", "result": 75.5, "unit": "%"}]}
